Columns and labels:
[1] = tested on: cultured human mast cells (CHMC); assay: CHMC low cell density IgE activation: tryptase assay; type: cell-based; settings: anti-IgE
In short: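 Cultured human mast cells (1000-1500 cells/well, donor-dependent) equilibrated 1 hr at 37° C, then stimulated with anti-IgE for 30 min at 37° C. Tryptase released into the supernatant is measured with a fluorogenic tryptase substrate after 30 min at room temperature.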

[2] = tested on: cultured human mast cells (CHMC); assay: CHMC low cell density ionomycin activation: tryptase assay; type: cell-based

Row | SMILES | IC50 [1] [µM] | IC50 [2] [µM]
1 | Cc1ccc(-c2ccccc2)cc1Nc1ncc(F)c(Nc2cc(-c3ccccc3)ccc2C)n1 [R926402, N2,N4-Bis[(2-methyl-5-phenyl)phenyl]-5-fluoro-2,4-pyrimidinediamine] | > 10 | > 10
2 | O=C(COc1cccc(Nc2ncc(F)c(Nc3ccc4c(c3)OCCO4)n2)c1)N1CCOCC1 [R926484, N4-(3,4-Ethylenedioxyphenyl)-5-fluoro-N2-[3-(N-morpholino)carbonylmethyleneoxyphenyl]-2,4-pyrimidinediamine] | 1.52 | > 10
3 | O=C(COc1cccc(Nc2ncc(F)c(Nc3ccc4c(c3)OCCO4)n2)c1)N1CCNCC1 [R926503, N4-(3,4-Ethylenedioxyphenyl)-5-fluoro-N2-[3-(N-piperazino)carbonylmethyleneoxyphenyl]-2,4-pyrimidinediamine] | 0.452 | > 10
4 | CCOC(=O)c1cnc(Nc2cccc(O)c2)nc1N[C@@H](Cc1ccccc1)C(=O)OCC [R926528, 5-Ethoxycarbonyl-N2-(3-hydroxyphenyl)-4-[N-(L)-phenylalanineethyl ester]-2-pyrimidineamine] | 8.75 | > 10
5 | COC(=O)c1cnc(Nc2ccc(OCC(=O)N3CCCC3)cc2)nc1Nc1ccc(OCC(=O)N2CCCC2)cc1 [R926559, 5-Methoxycarbonyl-N2,N4-bis[4-(N-pyrrolidino)carbonylmethyleneoxyphenyl)-2,4-pyrimidinediamine] | 7.7 | > 10
6 | O=C(O)COc1ccc(Nc2ncc(F)c(Nc3ccc(OCC(=O)O)cc3)n2)cc1 [R926560, N2,N4-Bis(4-carboxymethyleneoxy)phenyl-5-fluoro-2,4-pyrimidinediamine] | > 10 | > 10
7 | CCOC(=O)c1cnc(Nc2ccc(OCC(=O)N3CCCC3)cc2)nc1Nc1ccc(OCC(=O)N2CCCC2)cc1 [R926562, N2,N4-Bis[4-(N-pyrrolidino)carbonylmethyleneoxyphenyl]-5-ethoxycarbonyl-2,4-pyrimidinediamine] | > 10 | > 10
8 | O=C(COc1ccc(Nc2ncc(F)c(Nc3ccc(OCC(=O)N4CCCC4)cc3)n2)cc1)N1CCCC1 [R926563, N2,N4-Bis(4-N-pyrrolidinocarbonylmethyleneoxyphenyl)-5-fluoro-2,4-pyrimidinediamine] | > 10 | > 10
9 | CCOC(=O)COc1ccc(Nc2nc(Nc3ccc(OCC(=O)OCC)cc3)c(N)c(C(=O)OCC)n2)cc1 [R926567, 5-Amino-N2,N4-bis(4-ethoxycarbonylmethyleneoxyphenyl)-6-ethoxycarbonyl-2,4-pyrimidinediamine] | 9.3 | > 10
10 | CCOC(=O)COc1ccc(Nc2nc(Cl)c(Cl)c(Nc3ccc(OCC(=O)OCC)cc3)n2)cc1 [R926569, N2,N4-Bis(4-ethoxycarbonylmethyleneoxyphenyl)-5,6-dichloro-2,4-pyrimidinediamine] | 0.61 | 3.07

Next, values leading:

Row | IC50 [1] [µM] | IC50 [2] [µM] | SMILES
11 | > 10 | > 10 | COc1cc(-c2ccccc2)c(C)cc1Nc1ncc(F)c(Nc2cc(C)c(-c3ccccc3)cc2OC)n1 [R926401, N2,N4-Bis[(2-methoxy-5-methyl-4-phenyl)phenyl]-5-fluoro-2,4-pyrimidinediamine]
12 | > 10 | > 10 | Fc1cnc(Nc2ccc3c(c2)OCCO3)nc1NNc1ccc2c(c1)OCO2 [R926406, N2-(3,4-Ethylenedioxyphenyl)-N4-(3,4-methylenedioxyphenylhydrazinyl)-5-fluoro-2-pyrimidineamine]
13 | 2.15 | > 10 | CSc1nc(Nc2ccc3c(c2)OCCO3)nc(Nc2ccc3c(c2)OCCO3)c1Cl [R926475, N2,N4-Bis(3,4-ethyelenedioxyphenyl)-5-chloro-6-thiomethyl-2,4-pyrimidinediamine]
14 | 1.9 | > 10 | N#CCOc1ccc(Nc2ncc(F)c(Nc3ccc4c(c3)OCCO4)n2)cc1 [R926480, N2-(4-Cyanomethyleneoxyphenyl)-N4-(3,4-ethylenedioxyphenyl)-5-fluoro-2,4-pyrimidinediamine]
15 | 1.04 | > 10 | CCOC(=O)COc1cccc(Nc2ncc(F)c(Nc3ccc4c(c3)OCCO4)n2)c1 [R926482, N2-(3-Ethoxycarbonylmethyleneoxyphenyl)-N4-(3,4-ethylenedioxyphenyl)-5-fluoro-2,4-pyrimidinediamine]
16 | 1.41 | > 10 | CC(C)Oc1cccc(Nc2nc(Nc3ccc4oc(C(=O)N5CCOCC5)cc4c3)ncc2F)c1 [R926489, 5-Fluoro-N4-(3-isopropoxyphenyl)-N2-[2-(N-morpholino)carbonylbenzofuran-5-yl]-2,4-pyrimidinediamine]
17 | 1.57 | > 10 | Fc1cnc(Nc2ccc3oc(CN4CCOCC4)cc3c2)nc1Nc1ccc2c(c1)OCCO2 [R926490, N4-(3,4-Ethylenedioxyphenyl)-5-fluoro-N2-[2-(N-morpholinomethylene)benzofuran-5-yl]-2,4-pyrimidinediamine]
18 | 0.343 | > 10 | O=C(COc1cccc(Nc2ncc(F)c(Nc3cccc(O)c3)n2)c1)NCCO [R926506, 5-Fluoro-N4-(3-hydroxyphenyl)-N2-[3-(N-2-hydroxyethylamino)carbonylmethyleneoxyphenyl]-2,4-pyrimidinediamine]
19 | > 10 | > 10 | CCOC(=O)c1cnc(N[C@@H](Cc2ccccc2)C(=O)OCC)nc1N[C@@H](Cc1ccccc1)C(=O)OCC [R926526, 2,4-Bis[N-(L)-phenylalaninylethyl ester]-5-ethoxycarbonylpyrimidine]
20 | > 10 | > 10 | CCOC(=O)c1cnc(N[C@H](C(=O)OCC)C(C)C)nc1N[C@H](C(=O)OCC)C(C)C [R926527, 2,4-Bis[N-(L)-valinylethyl ester]-5-ethoxycarbonylpyrimidine]
21 | > 10 | > 10 | O=C(O)c1cnc(Nc2cccc(O)c2)nc1NC(C(=O)O)c1ccccc1 (stereo not shown) [R926535, 5-Carboxy-N2-(3-hydroxyphenyl)-N4-[N-(L)-phenylglycine)-2-pyrimidineamine]
22 | > 10 | > 10 | CCOC(=O)COc1ccc(Nc2nc(Cl)cc(NCC(=O)OC)n2)cc1 [R926555, 6-Chloro-N2-(4-ethoxycarbonylmethyleneoxyphenyl)-N4-(methoxycarbonylmethyl)-2,4-pyrimidinediamine]
23 | 3.75 | > 10 | O=C(O)COc1ccc(Nc2ncc(F)c(Nc3cccc(O)c3)n2)cc1 [R926564, N2-(4-Carboxymethyleneoxyphenyl)-5-Fluoro-N4-(3-hydroxyphenyl)-2,4-pyrimidinediamine]
24 | 2.73 | > 10 | CCOC(=O)COc1ccc(Nc2nc(Nc3ccc(OCC(=O)OCC)cc3)c([N+](=O)[O-])c(C(=O)OCC)n2)cc1 [R926566, N2,N4-Bis(4-ethoxycarbonylmethylenedioxyphenyl)-6-ethoxycarbonyl-5-nitro-2,4-pyrimidinediamine]
25 | > 10 | > 10 | CCOC(=O)COc1ccc(Nc2nc(Nc3ccc(OCC(=O)OCC)cc3)c(NC(=O)Nc3ccccc3)c(C(=O)OCC)n2)cc1 [R926571, N2,N4-Bis(4-ethoxycarbonylmethyleneoxyphenyl)-6-ethoxycarbonyl-5-(phenylaminocarbonylamino)-2,4-pyrimidinediamine]
26 | 1.8 | 6.08 | COC(=O)COc1ccc(Nc2ncc(F)c(Nc3ccc(OCC(=O)OC(C)(C)C)cc3)n2)cc1 [R926572]
